For experiment [1], the system named is P. falciparum. As to conditions: findings of Vanderberg et al. (Exp. Parasitol. 1981); cited from earlier work.
In experiment [2] the test system is P. falciparum-Merozoiten. As to conditions: synchronous in vitro culture, addition of the sugar; findings of Vanderberg et al. (Exp. Parasitol. 1981); cited from earlier work.
In experiment [3] the test system is P. falciparum. Description: Intraerythrocytic growth of malaria parasites (toxicity to the parasite). It is filed as cell-based. As to conditions: applicant's own finding, contrary to Vanderberg et al.
The test system of experiment [4] is P. falciparum-Merozoiten. Put plainly: Invasion of human erythrocytes by P. falciparum merozoites in synchronous in vitro culture. As to conditions: compared with other methyl glycosides (methyl gluco-, galacto-, fuco-, mannopyranosides). The class given is cell-based.

Where a name gives a salt, the structure may show the parent alone.

In the case of `C[C@@H]1OC(O)[C@@H](O)[C@H](O)[C@@H]1O` (stereo partly drawn) [L-Fucose], in the experiment on P. falciparum [1], the “intraerythrozytäre Wachstum der Malaria-Parasiten” value is recorded as “gehemmt”. Besides, in the experiment on P. falciparum-Merozoiten [2], the “Befall von Humanerythrozyten durch P. falciparum-Merozoiten” value is “gehemmt”. Besides, in the experiment with P. falciparum [3], the “intraerythrozytäre Parasiten-Wachstum (toxisch)” value is listed as “nicht toxisch”.
With `CO[C@@H]1O[C@H](CO)[C@@H](O)[C@H](O)[C@H]1NC(C)=O` [β-DGlcNAcOMe, Methyl-2 -acetamido- 2 -desoxy-alpha oder beta-D-glucopyranosid], the “intraerythrozytäre Parasiten-Wachstum (toxisch)” value in the experiment on P. falciparum [3] is listed as “nicht toxisch”. Moreover, the “invasionsinhibierende Wirkung” value in the experiment on P. falciparum-Merozoiten [4] is “stark erhöhte invasionsinhibierende Wirkung”.
Regarding `N[C@H]1C(O)O[C@H](CO)[C@@H](O)[C@@H]1O` (stereo partly drawn) [DGlcNH3Cl, D-Glucosaminhydrochlorid], in the experiment with P. falciparum [1], the “intraerythrozytäre Wachstum der Malaria-Parasiten” value is “gehemmt”. Besides, in the experiment with P. falciparum-Merozoiten [2], the “Befall von Humanerythrozyten durch P. falciparum-Merozoiten” value is listed as “gehemmt”.
As for `CC(=O)N[C@H]1C(O)O[C@H](CO)[C@@H](O)[C@@H]1O` (stereo partly drawn) [DGlcNAc, N-Acetyl-D-glucosamin], the “intraerythrozytäre Wachstum der Malaria-Parasiten” value in the experiment with P. falciparum [1] was “nicht aber durch N-Acetyl-D-Glucosamin gehemmt”. In addition, the “Befall von Humanerythrozyten durch P. falciparum-Merozoiten” value with P. falciparum-Merozoiten [2] is listed as “gehemmt”. Also, the “intraerythrozytäre Parasiten-Wachstum (toxisch)” value in the experiment on P. falciparum [3] is “toxisch”.
As for `CO[C@H]1O[C@H](CO)[C@@H](O)[C@H](O)[C@H]1NC(C)=O` [α-DGlcNAcOMe, Methyl-2 -acetamido- 2 -desoxy-alpha oder beta-D-glucopyranosid], the “intraerythrozytäre Parasiten-Wachstum (toxisch)” value with P. falciparum [3] is “nicht toxisch”. Also, the “invasionsinhibierende Wirkung” value in the experiment with P. falciparum-Merozoiten [4] is given as “stark erhöhte invasionsinhibierende Wirkung”.

The values are drawn from patent EP0096293A1, “N-acetylglucosamine derivatives, process for their preparation and their use to combat malaria” (BEHRINGWERKE Aktiengesellschaft, priority 1982, dated 1983).
